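1) Cells in 96-well plates. 2) Compound, 48 h, 5 concentrations. 3) Linear interpolation between surrounding doses. 4) Unreached endpoint = highest concentration. GI50: concentration for 50% inhibition of growth.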 Activity calls are given as the source filed them. No stated cut-off is given here; in the data, active = GI50 up to about 1.1 µM and inactive = higher.
Columns and labels:
Assay in all cases: inhibition of tumour cell growth, NCI panel, 48 h
[1] = test system: KM12
[2] = test system: HCT-15
[3] = test system: 786-0
[4] = test system: OVCAR-3
[5] = test system: M19-MEL
[6] = test system: SNB-75
[7] = test system: HCC 2998
[8] = test system: CAKI-1
[9] = test system: HOP-62
[10] = test system: M14
[11] = test system: HOP-92
[12] = test system: IGROV-1
[13] = test system: CCRF-CEM
[14] = test system: SK-MEL-5
[15] = test system: MDA-N
[16] = test system: A498
[17] = test system: PC-3
[18] = test system: MDA-MB-231
[19] = test system: MCF7
[20] = test system: NCI/ADR-RES

| Compound | GI50 [1] | GI50 [2] | GI50 [3] | GI50 [4] | GI50 [5] | GI50 [6] | GI50 [7] | GI50 [8] | GI50 [9] | GI50 [10] | GI50 [11] | GI50 [12] | GI50 [13] | GI50 [14] | GI50 [15] | GI50 [16] | GI50 [17] | GI50 [18] | GI50 [19] | GI50 [20] |
| --- | --- | --- | --- | --- | --- | --- | --- | --- | --- | --- | --- | --- | --- | --- | --- | --- | --- | --- | --- | --- |
| NC(=S)N/N=C(\CC1OC(=O)c2ccccc21)c1ccc(Cl)cc1 (centres undefined) | 22 µM (inactive) | 39.8 µM | 43.4 µM (inactive) | 34.6 µM (inactive) | 21.9 µM (inactive) | 49.2 µM (inactive) | 23.9 µM (inactive) | 36.3 µM (inactive) | 23.2 µM (inactive) | 43.2 µM (inactive) | 23.1 µM (inactive) | 40.3 µM (inactive) | – | – | – | – | – | – | – | – |
| C=C(C)C(=O)OC1C/C(CO)=C\C(O)C/C(C)=C/C2OC(=O)C(=C)C21 (centres undefined) | 19.2 µM (inactive) | 14.1 µM | 16 µM (inactive) | 25.1 µM (inactive) | 25.6 µM (inactive) | 32.4 µM (inactive) | > 10 µM (inactive) | 22.8 µM (inactive) | > 100 µM (inactive) | 17.7 µM (inactive) | 20.8 µM (inactive) | 48.4 µM (inactive) | 8.65 µM (inactive) | 21 µM (inactive) | – | – | – | – | – | – |
| CN1C(=O)C(O)CC1c1ccc(C(F)(F)F)cc1 (centres undefined) | > 100 µM (inactive) | > 100 µM | > 100 µM (inactive) | > 100 µM (inactive) | – | > 100 µM (inactive) | > 100 µM (inactive) | > 100 µM (inactive) | > 100 µM (inactive) | > 100 µM (inactive) | > 100 µM (inactive) | > 100 µM (inactive) | > 100 µM (inactive) | > 100 µM (inactive) | > 100 µM (inactive) | > 100 µM (inactive) | > 100 µM (inactive) | > 100 µM (inactive) | > 100 µM (inactive) | > 100 µM (inactive) |
| C=CCN1C(=O)/C(=C/c2ccc(Cl)cc2)N=C1SC/C=C/C | 32.3 µM (inactive) | 34.2 µM | 33 µM (inactive) | 44.6 µM (inactive) | – | 75.7 µM (inactive) | 49.9 µM (inactive) | 61.2 µM (inactive) | > 100 µM (inactive) | 31 µM (inactive) | 24.2 µM (inactive) | 65.5 µM (inactive) | 39.8 µM (inactive) | 24.4 µM (inactive) | 25.3 µM (inactive) | 33.9 µM (inactive) | 31.4 µM (inactive) | 42.4 µM (inactive) | 26.6 µM (inactive) | 35.2 µM (inactive) |
| CC(C)(C)[Si](C)(C)OCC1OC(n2ccc(=O)[nH]c2=O)C(O[Si](C)(C)C(C)(C)C)/C1=N/O (centres undefined) | 3.54 µM (inactive) | 3.26 µM | 2.64 µM (inactive) | 8.67 µM (inactive) | – | 18.5 µM (inactive) | 3.37 µM (inactive) | 7.71 µM (inactive) | 4.63 µM (inactive) | 3.33 µM (inactive) | 2.77 µM (inactive) | 4.18 µM (inactive) | 3.29 µM (inactive) | 2.45 µM (inactive) | 4.08 µM (inactive) | 4.97 µM (inactive) | 3.99 µM (inactive) | 12.4 µM (inactive) | 3.47 µM (inactive) | 2.49 µM (inactive) |
| C=CC1C(OC2OC(CO)C(O)C(O)C2O)OC=C(C(=O)OC)C1CC1CC(=O)CC(CCc2ccc(O)cc2)O1 (centres undefined) | > 100 µM (inactive) | > 100 µM | > 100 µM (inactive) | > 100 µM (inactive) | – | > 100 µM (inactive) | > 100 µM (inactive) | > 100 µM (inactive) | > 100 µM (inactive) | > 100 µM (inactive) | > 100 µM (inactive) | > 100 µM (inactive) | > 100 µM (inactive) | > 100 µM (inactive) | > 100 µM (inactive) | > 100 µM (inactive) | > 100 µM (inactive) | > 100 µM (inactive) | > 100 µM (inactive) | > 100 µM (inactive) |
| O=c1[nH]c2cc(Cl)ccc2nc1/C(=N/Nc1ccccc1)C(O)c1ccco1 (centres undefined) | > 100 µM (inactive) | > 100 µM | > 100 µM (inactive) | > 100 µM (inactive) | – | > 100 µM (inactive) | > 100 µM (inactive) | > 100 µM (inactive) | > 100 µM (inactive) | > 100 µM (inactive) | > 100 µM (inactive) | > 100 µM (inactive) | > 100 µM (inactive) | > 100 µM (inactive) | > 100 µM (inactive) | > 100 µM (inactive) | > 100 µM (inactive) | > 100 µM (inactive) | > 100 µM (inactive) | > 100 µM (inactive) |
| COC(=O)C(=O)C(C(=O)C(=O)Nc1nc2ccc(C)cc2s1)c1nc2ccc([N+](=O)[O-])cc2nc1O (centres undefined) | > 100 µM (inactive) | > 100 µM | > 100 µM (inactive) | > 100 µM (inactive) | – | > 100 µM (inactive) | > 100 µM (inactive) | > 100 µM (inactive) | > 100 µM (inactive) | > 100 µM (inactive) | 65.2 µM (inactive) | 47.9 µM (inactive) | > 100 µM (inactive) | > 100 µM (inactive) | > 100 µM (inactive) | > 100 µM (inactive) | > 100 µM (inactive) | > 100 µM (inactive) | > 100 µM (inactive) | > 100 µM (inactive) |
| COc1nc2ccc(COc3ccc(C(=O)O)cc3)cc2nc1OC | > 100 µM (inactive) | 65.6 µM | > 100 µM (inactive) | > 100 µM (inactive) | – | 11.7 µM (inactive) | 58.2 µM (inactive) | 93.3 µM (inactive) | > 100 µM (inactive) | 66.1 µM (inactive) | 47.5 µM (inactive) | > 100 µM (inactive) | 36.6 µM (inactive) | > 100 µM (inactive) | 38.2 µM (inactive) | 95.7 µM (inactive) | 71.4 µM (inactive) | > 100 µM (inactive) | > 100 µM (inactive) | 88.1 µM (inactive) |
| Cc1cnc2c(c1)C(=O)N(c1ccc([N+](=O)[O-])cc1)S2(=O)=O | > 100 µM (inactive) | 66.1 µM | > 100 µM (inactive) | > 100 µM (inactive) | – | 61.1 µM (inactive) | > 100 µM (inactive) | > 100 µM (inactive) | > 100 µM (inactive) | > 100 µM (inactive) | > 100 µM (inactive) | 30.3 µM (inactive) | 82.4 µM (inactive) | 71.3 µM (inactive) | 93.5 µM (inactive) | 68.4 µM (inactive) | 67.3 µM (inactive) | > 100 µM (inactive) | > 100 µM (inactive) | 74.3 µM (inactive) |
| C#CCC[C@@H]1O[C@@]1(C)CC/C=C(\C)CC/C=C/C=O | 36.9 µM (inactive) | 35 µM | 73.5 µM (inactive) | 29.8 µM (inactive) | 24.2 µM (inactive) | 42.6 µM (inactive) | – | – | > 100 µM (inactive) | 21.3 µM (inactive) | 28.5 µM (inactive) | 22.1 µM (inactive) | 23.3 µM (inactive) | – | – | – | – | – | – | – |
| Cn1c(=O)c2nc3c4ccccc4c(=O)n(C)c3nc2n(C)c1=O | > 100 µM (inactive) | > 100 µM | > 100 µM (inactive) | > 100 µM (inactive) | > 100 µM (inactive) | > 100 µM (inactive) | > 100 µM (inactive) | – | – | – | > 100 µM (inactive) | > 100 µM (inactive) | – | > 100 µM (inactive) | – | – | – | – | – | – |
